{"source": "patent EP1496060B1", "about": "“Antitumoral analogs of ET-743” (PHARMA MAR, S.A., priority 2000, dated 2001)", "key": {"[1]": {"tested_on": "A-549", "experiment": "Cytotoxic activity, IC50, A-549", "type": "cell-based", "settings": "Homo sapiens, A549"}, "[2]": {"tested_on": "HT-29", "experiment": "Cytotoxic activity, IC50, HT-29", "type": "cell-based", "settings": "Homo sapiens"}, "[3]": {"tested_on": "DU-145", "experiment": "Cytotoxic activity, IC50, DU-145", "type": "cell-based", "settings": "Homo sapiens"}, "[4]": {"tested_on": "MEL-28", "experiment": "Cytotoxic activity, IC50, MEL-28", "type": "cell-based", "settings": "Homo sapiens, SK-MEL-28"}, "[5]": {"tested_on": "P-388", "experiment": "Cytotoxic activity, IC50, P-388", "type": "cell-based", "settings": "Mus musculus, P388"}, "[6]": {"tested_on": "RAMOS", "settings": "ramos cells"}}}
{"smiles": "C/C=C/C(=O)NC[C@H]1c2c(c(OC(C)=O)c(C)c3c2OCO3)C[C@H]2[C@H]3c4c(cc(C)c(OC)c4O)C[C@@H]([C@H](C#N)N12)N3C", "values": [{"measurement": "IC50", "setting": "[1]", "result": 0.0008, "unit": "µM"}, {"measurement": "IC50", "setting": "[2]", "result": 0.0001, "unit": "µM"}, {"measurement": "IC50", "setting": "[3]", "result": 0.0008, "unit": "µM"}]}
{"smiles": "COc1c(C)cc2c(c1O)[C@@H]1[C@@H]3Cc4c(OC(C)=O)c(C)c5c(c4[C@H](CNC(=O)CCc4ccccc4)N3[C@@H](O)[C@H](C2)N1C)OCO5", "values": [{"measurement": "IC50", "setting": "[2]", "result": 0.0001, "unit": "µM"}, {"measurement": "IC50", "setting": "[3]", "result": 0.0001, "unit": "µM"}]}
{"smiles": "COc1c(C)cc2c(c1O)[C@@H]1[C@@H]3Cc4c(OC(C)=O)c(C)c5c(c4[C@H](CNC(=O)Cc4ccccc4)N3[C@@H](O)[C@H](C2)N1C)OCO5", "values": [{"measurement": "IC50", "setting": "[1]", "result": 0.0007, "unit": "µM"}, {"measurement": "IC50", "setting": "[4]", "result": 0.0007, "unit": "µM"}, {"measurement": "IC50", "setting": "[2]", "result": 0.0007, "unit": "µM"}, {"measurement": "IC50", "setting": "[5]", "result": 0.0007, "unit": "µM"}, {"measurement": "IC50", "setting": "[3]", "result": 0.0007, "unit": "µM"}]}
{"smiles": "COCOc1c(OC)c(C)cc2c1C1C3Cc4c(OC(C)=O)c(C)c5c(c4C(COC(=O)C=Cc4ccccc4)N3C(C#N)C(C2)N1C)OCO5", "note": "(centres unmarked)", "values": [{"measurement": "IC50", "setting": "[1]", "result": 0.07, "unit": "µM"}, {"measurement": "IC50", "setting": "[4]", "result": 0.07, "unit": "µM"}, {"measurement": "IC50", "setting": "[2]", "result": 0.07, "unit": "µM"}, {"measurement": "IC50", "setting": "[3]", "result": 0.07, "unit": "µM"}]}
{"smiles": "CCCC(=O)OCC1c2c(c(OC(C)=O)c(C)c3c2OCO3)CC2C3c4c(cc(C)c(OC)c4O)CC(C(C#N)N12)N3C", "note": "(centres unmarked)", "values": [{"measurement": "IC50", "setting": "[1]", "result": 0.0008, "unit": "µM"}, {"measurement": "IC50", "setting": "[2]", "result": 0.0008, "unit": "µM"}, {"measurement": "IC50", "setting": "[3]", "result": 0.0008, "unit": "µM"}]}
{"smiles": "COc1c(C)cc2c(c1O)C1C3Cc4c(OC(C)=O)c(C)c5c(c4C(COC(=O)CCc4ccccc4)N3C(C#N)C(C2)N1C)OCO5", "note": "(centres unmarked)", "values": [{"measurement": "IC50", "setting": "[2]", "result": 0.0001, "unit": "µM"}, {"measurement": "IC50", "setting": "[3]", "result": 0.0001, "unit": "µM"}]}
{"smiles": "COc1c(C)cc2c(c1O)C1C3Cc4c(OC(C)=O)c(C)c5c(c4C(COC(=O)C=Cc4ccccc4)N3C(C#N)C(C2)N1C)OCO5", "note": "(centres unmarked)", "values": [{"measurement": "IC50", "setting": "[1]", "result": 0.0007, "unit": "µM"}, {"measurement": "IC50", "setting": "[4]", "result": 0.0007, "unit": "µM"}, {"measurement": "IC50", "setting": "[2]", "result": 0.0007, "unit": "µM"}, {"measurement": "IC50", "setting": "[5]", "result": 0.0007, "unit": "µM"}, {"measurement": "IC50", "setting": "[3]", "result": 0.0007, "unit": "µM"}]}
{"smiles": "CCCC(=O)OCC1c2c(c(OC(C)=O)c(C)c3c2OCO3)CC2C3c4c(cc(C)c(OC)c4O)CC(C(O)N12)N3C", "note": "(centres unmarked)", "values": [{"measurement": "IC50", "setting": "[2]", "result": 0.0001, "unit": "µM"}, {"measurement": "IC50", "setting": "[3]", "result": 0.0001, "unit": "µM"}]}
{"smiles": "COc1c(C)cc2c(c1O)C1C3Cc4c(OC(C)=O)c(C)c5c(c4C(COC(=O)C=Cc4cccc(C(F)(F)F)c4)N3C(O)C(C2)N1C)OCO5", "note": "(centres unmarked)", "values": [{"measurement": "IC50", "setting": "[2]", "result": 0.0001, "unit": "µM"}, {"measurement": "IC50", "setting": "[3]", "result": 0.0001, "unit": "µM"}]}
{"smiles": "COc1c(C)cc2c(c1O)C1C3Cc4c(OC(C)=O)c(C)c5c(c4C(COC(=O)CCc4ccccc4)N3C(O)C(C2)N1C)OCO5", "note": "(centres unmarked)", "values": [{"measurement": "IC50", "setting": "[2]", "result": 0.0001, "unit": "µM"}, {"measurement": "IC50", "setting": "[3]", "result": 0.0001, "unit": "µM"}]}
{"smiles": "COc1c(C)cc2c(c1O)C1C3Cc4c(OC(C)=O)c(C)c5c(c4C(COC(=O)C=Cc4ccccc4)N3C(O)C(C2)N1C)OCO5", "note": "(centres unmarked)", "values": [{"measurement": "IC50", "setting": "[1]", "result": 0.0007, "unit": "µM"}, {"measurement": "IC50", "setting": "[4]", "result": 0.0007, "unit": "µM"}, {"measurement": "IC50", "setting": "[2]", "result": 0.0007, "unit": "µM"}, {"measurement": "IC50", "setting": "[3]", "result": 0.0007, "unit": "µM"}]}
{"smiles": "COc1c(C)cc2c(c1O)C1C3Cc4c(OC(C)=O)c(C)c5c(c4C(CNC(=O)C(CCCNC(=N)N)NC(=O)OC(C)(C)C)N3C(C#N)C(C2)N1C)OCO5", "note": "(centres unmarked)", "values": [{"measurement": "IC50", "setting": "[1]", "result": "> 1", "unit": "µM"}, {"measurement": "IC50", "setting": "[2]", "result": "> 1", "unit": "µM"}]}
{"smiles": "COc1c(C)cc2c(c1O)C1C3Cc4c(OC(C)=O)c(C)c5c(c4C(CNC(=O)C(Cc4c[nH]c6ccccc46)NC(=O)OC(C)(C)C)N3C(O)C(C2)N1C)OCO5", "note": "(centres unmarked)", "values": [{"measurement": "IC50", "setting": "[2]", "result": 0.012, "unit": "µM"}]}
{"smiles": "COc1c(C)cc2c(c1O)C1C3Cc4c(OC(C)=O)c(C)c5c(c4C(CNC(=O)c4cccnc4Cl)N3C(C#N)C(C2)N1C)OCO5", "note": "(centres unmarked)", "values": [{"measurement": "IC50", "setting": "[2]", "result": 0.00015, "unit": "µM"}]}
{"smiles": "COc1c(C)cc2c(c1O)C1C3Cc4c(OC(C)=O)c(C)c5c(c4C(CNC(=O)c4cccnc4Cl)N3C(O)C(C2)N1C)OCO5", "note": "(centres unmarked)", "values": [{"measurement": "IC50", "setting": "[2]", "result": 0.00015, "unit": "µM"}]}
{"smiles": "COc1c(C)cc2c(c1O)C1C3Cc4c(OC(C)=O)c(C)c5c(c4C(CNC(=O)CC4CCCCC4)N3C(C#N)C(C2)N1C)OCO5", "note": "(centres unmarked)", "values": [{"measurement": "IC50", "setting": "[2]", "result": 0.0015, "unit": "µM"}]}
{"smiles": "COc1c(C)cc2c(c1OC(=O)CC1CCCCC1)C1C3Cc4c(OC(C)=O)c(C)c5c(c4C(CNC(=O)CC4CCCCC4)N3C(C#N)C(C2)N1C)OCO5", "note": "(centres unmarked)", "values": [{"measurement": "IC50", "setting": "[2]", "result": 0.013, "unit": "µM"}]}
{"smiles": "COc1c(C)cc2c(c1O)C1C3Cc4c(OC(C)=O)c(C)c5c(c4C(CNC(=O)CCC4CCCCC4)N3C(C#N)C(C2)N1C)OCO5", "note": "(centres unmarked)", "values": [{"measurement": "IC50", "setting": "[2]", "result": 0.0015, "unit": "µM"}]}
{"smiles": "COc1c(C)cc2c(c1OC(=O)CCC1CCCCC1)C1C3Cc4c(OC(C)=O)c(C)c5c(c4C(CNC(=O)CCC4CCCCC4)N3C(C#N)C(C2)N1C)OCO5", "note": "(centres unmarked)", "values": [{"measurement": "IC50", "setting": "[2]", "result": 0.12, "unit": "µM"}]}
{"smiles": "COc1c(C)cc2c(c1O)[C@@H]1[C@@H]3Cc4c(OC(C)=O)c(C)c5c(c4[C@H](COC(=O)CCc4ccccc4)N3[C@@H](O)[C@H](C2)N1C)OCO5", "values": [{"measurement": "IC50", "setting": "[6]", "result": 1.86, "unit": "nM"}]}
